# Reference: patent US20100144854A1 (priority 2007, published 2010)
# Columns and labels:
# Assay type in all cases: in vivo, human
# [1] = system: amyloidosis; experiment: Example 1: patient with amyloidosis treated with rhodamine 6G; settings: Patient V
# Protocol: Patient V. Diagnosis: amyloidosis. The patient felt lethargic and “under the weather”. […] The first course of treatment with the preparation consisted of 15 drops of a 1% solution in a glass of water three times a day by mouth, at the evening meal in addition a microenema of 10 drops of a 1% solution in 30 ml of water, and at night a 1% suppository containing the preparation. […] By the third week after the start of treatment the patient's condition had improved. In the words of relatives, the patient was “feeling better”. […] Blood analyses against the treatment background were normal.
# [2] = system: Malignant glioblastoma of the left brain; experiment: Example 4: patient with recurrent brain glioblastoma treated with rhodamine 6G intravenously
# Protocol: Patient G. Diagnosis: Malignant glioblastoma of the left brain. Recurrence of cancer. Two years previously a tumor had been removed in connection with a brain glioblastoma. The patient complained of headaches, nausea and vomiting. […] Patient's condition moderately severe; pale skin. […] The procedure took 40 minutes. Subsequent procedures were carried out in exactly the same sequence twice a week. The course of treatment lasted 3 months. During the treatment the tumor reduced in size to 0.3×0.4 cm. After two infusions of the preparation the symptoms of nausea and pain had decreased. The preparation was administered over 6 months as a single dose once every 2 weeks.
# [3] = system: Adenocarcinoma of the prostate; experiment: Example 7: patient with prostate adenocarcinoma treated with rhodamine 6G; settings: Patient Sh., 55
# Protocol: The patient presented complaining of a sharp pain when urinating and of retention and reddish color of the urine. On examination: Ultrasound scan—prostate approximately 85 cm^3, tumor with irregular contours, 34×40 mm^2 in size. PSA-49.9 […].
# Needle biopsy—adenocarcinoma of the prostate.
# Diagnosis: Adenocarcinoma of the prostate. The patient refused surgical intervention and chemotherapy.
# At night a suppository containing 2% of the preparation was administered.
# [4] = system: Recurring cancer of the right ovary; experiment: Example 8: patient with recurring ovarian cancer treated with rhodamine 6G enema; settings: Patient T, 52; third day after start; enema 5 g per day
# Protocol: In connection with the detection of carcinoma of the left ovary the patient underwent a hysterectomy.
# After the operation the patient was given a 2-year course of chemotherapy. The patient subsequently complained of pain in the rectum and tenesmus.
# Diagnosis: Recurring cancer of the right ovary.
# In view of the ineffectiveness of continuing the chemotherapy, the patient was treated with the preparation in the form of an enema.
# [5] = system: Melanoma of the left lower leg; experiment: Example 11: patient with melanoma treated with 5% rhodamine 6G ointment; settings: Patient Sh., 75
substance,measurement,setting,value
"9-(2-ethoxycarbonyl)phenyl)-3,6-bis(ethylamino)2,7-dimethylxanthyl chloride [rhodamine 6G]",blood analyses against the treatment background,[1],normal
same,patient's condition,"[1]; 73, first week, 1% solution oral, microenema, 1% suppository",basically no change
same,patient's condition,[1]; one year after treatment,significantly improved
same,patient's condition,[1]; third week after start of treatment,improved
same,"amyloid foci in the brain, CT scan",[1]; three months after start of treatment,reduction of amyloid foci in the brain
same,tumor on CT scan,[2]; after 9 months' treatment,no tumor could be detected
same,symptoms of nausea and pain,[2]; after two infusions,decreased
same,pain experienced on urination,[3]; 40 days powder oral and 2% suppository,decreased in intensity
same,"decrease of size of the prostate, ultrasound","[3]; after 40 days, before approximately 85 cm^3",40%
same,recurrence of the cancer,[3]; over 2 years,No recurrence
same,"prostate size, ultrasound",[3]; subsequent examination after further 2 weeks oral and enemas,approximately 35 cm^3
same,PSA,"[3]; subsequent examination, before 49.9 ng/mL",1 ng/mL
same,severity of the pain,[4],decreased
same,decrease of sizes of the tumors,"[5]; 5% ointment, over 2 months, before 5×7×9 cm",70%
same,recurrence of the melanoma,[5]; over 3 years,no recurrence
